Results: PubChem BioAssay (NCI)
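Test compounds were applied to cells in 96-well plates for 48 hours at 5 doses. TGI is the concentration that stops growth completely.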

What was measured:
Test in all cases: NCI-60 cell line screen, 48 h
A549 NSCLC = tested on: A549 NSCLC
HCT-116 colon = tested on: HCT-116 colon
HCT-15 colon = tested on: HCT-15 colon
HL-60(TB) leukemia = tested on: HL-60(TB) leukemia
K-562 leukemia = tested on: K-562 leukemia
M14 melanoma = tested on: M14 melanoma
MALME-3M melanoma = tested on: MALME-3M melanoma
MDA-MB-231 breast = tested on: MDA-MB-231 breast
NCI-H226 lung = tested on: NCI-H226 lung
NCI-H522 lung = tested on: NCI-H522 lung
OVCAR-5 ovarian = tested on: OVCAR-5 ovarian
SF-539 CNS = tested on: SF-539 CNS
SK-MEL-2 melanoma = tested on: SK-MEL-2 melanoma
SK-MEL-5 melanoma = tested on: SK-MEL-5 melanoma
SK-OV-3 ovarian = tested on: SK-OV-3 ovarian
SNB-19 CNS = tested on: SNB-19 CNS
SNB-75 CNS = tested on: SNB-75 CNS
UACC-62 melanoma = tested on: UACC-62 melanoma
SK-MEL-28 melanoma = tested on: SK-MEL-28 melanoma

Row | Compound | TGI (A549 NSCLC) | TGI (HCT-116 colon) | TGI (HCT-15 colon) | TGI (HL-60(TB) leukemia) | TGI (K-562 leukemia) | TGI (M14 melanoma) | TGI (MALME-3M melanoma) | TGI (MDA-MB-231 breast) | TGI (NCI-H226 lung) | TGI (NCI-H522 lung) | TGI (OVCAR-5 ovarian) | TGI (SF-539 CNS) | TGI (SK-MEL-2 melanoma) | TGI (SK-MEL-5 melanoma) | TGI (SK-OV-3 ovarian) | TGI (SNB-19 CNS) | TGI (SNB-75 CNS) | TGI (UACC-62 melanoma) | TGI (SK-MEL-28 melanoma)
1 | O=c1[nH]c(Nc2cccc(Cl)c2)nc2nc[nH]c12 | > 100 µM | > 100 µM | > 100 µM | > 100 µM | > 100 µM | > 100 µM | > 100 µM | > 100 µM | > 100 µM | > 100 µM | > 100 µM | > 100 µM | > 100 µM | > 100 µM | > 100 µM | > 100 µM | > 100 µM | > 100 µM | 
2 | Oc1ccc(CCc2cc(O)cc(O)c2)cc1 | > 100 µM | > 100 µM | > 100 µM | > 100 µM | > 100 µM | > 100 µM | > 100 µM | > 100 µM | > 100 µM | > 100 µM | > 100 µM | > 100 µM | > 100 µM | > 100 µM | > 100 µM | > 100 µM | > 100 µM | > 100 µM | > 100 µM
3 | NNc1nncn1N | > 100 µM | > 100 µM | > 100 µM | > 100 µM | > 100 µM | > 100 µM | > 85.4 µM | > 100 µM | > 100 µM | > 100 µM | > 100 µM | > 100 µM | > 100 µM | > 100 µM | > 100 µM | > 100 µM | > 100 µM | > 100 µM | > 100 µM
4 | NC(N)=NS(=O)(=O)c1ccc(NC(=O)c2ccc3nc4ccccc4c(Nc4ccc(S(N)(=O)=O)cc4)c3c2)cc1 | > 100 µM | > 100 µM | > 100 µM | > 100 µM | > 100 µM | > 100 µM | > 100 µM | > 100 µM | > 100 µM | > 100 µM | > 100 µM | > 100 µM | > 100 µM | > 100 µM | > 100 µM | > 100 µM | > 100 µM | > 100 µM | > 100 µM
5 | CC1(COS(=O)(=O)OCC2(C)COS(=O)(=O)OC2)COS(=O)(=O)OC1 | > 100 µM | > 100 µM | > 100 µM | > 58 µM | > 100 µM | > 100 µM | > 100 µM | > 100 µM | > 96.8 µM | > 100 µM | > 100 µM | > 100 µM | > 100 µM | > 100 µM | > 100 µM | > 100 µM | > 100 µM | > 100 µM | > 100 µM
6 | Cc1cc(=O)oc2cc(O)ccc12 | > 100 µM | > 100 µM | > 100 µM | > 100 µM | > 100 µM |  | > 100 µM | > 100 µM | > 100 µM | > 100 µM | > 100 µM | > 100 µM | > 100 µM | > 100 µM | > 100 µM | > 100 µM | > 100 µM | > 100 µM | > 100 µM
7 | CC(=O)OCC=C(CCl)CCC(Br)C(C)(C)Br (mixture of isomers) | > 10 µM | > 10 µM | > 10 µM | > 10 µM | > 10 µM | > 10 µM | > 10 µM | > 10 µM | > 10 µM | > 10 µM | > 10 µM | > 10 µM | > 10 µM | > 10 µM | > 10 µM | > 10 µM | > 10 µM | > 10 µM | > 10 µM
8 | COc1cccc(-c2cc(=O)c3ccc(C)nc3[nH]2)c1 | > 100 µM | > 38.1 µM |  | 0.0532 µM | 0.0656 µM | > 100 µM | > 100 µM | > 100 µM | 0.291 µM | > 100 µM | > 100 µM | 0.921 µM | > 100 µM | 2.47 µM | > 60.6 µM | > 100 µM | 0.0496 µM | > 100 µM | > 100 µM
9 | [N-]=[N+]=Nc1ccc(CNc2cc(=O)[nH]c(=O)[nH]2)cc1 | > 100 µM | > 100 µM | > 100 µM | > 100 µM | > 100 µM | > 100 µM | > 100 µM | > 100 µM | > 100 µM | > 100 µM | > 100 µM | > 100 µM | > 100 µM | > 100 µM | > 100 µM | > 100 µM | > 100 µM | > 100 µM | 99.6 µM
10 | COc1c(C)c(OC)c2c(c1O)[C@@H]1[C@@H]3Cc4c(OC)c(C)c(OC)c(O)c4[C@H](CNC(=O)c4cnc5ccccc5n4)N3[C@@H](C#N)[C@H](C2)N1C | > 0.1 µM | > 0.1 µM | > 0.0716 µM | 0.00554 µM | 0.018 µM | 0.00568 µM | 0.00458 µM | 0.032 µM | 0.00622 µM | 0.00516 µM | > 0.1 µM | 0.0104 µM | 0.00733 µM | 0.0187 µM | > 0.0445 µM | > 0.0533 µM | 0.00552 µM | 0.00346 µM | 0.00733 µM
11 | Cc1nc(C(N)=S)sc1C(=O)C/C(=N/N)C(=O)Nc1cccc(Cl)c1C | > 100 µM | > 100 µM | > 100 µM | > 100 µM | > 100 µM | > 100 µM | > 100 µM | > 100 µM | > 100 µM | > 100 µM | > 100 µM | > 100 µM | > 100 µM | > 100 µM | > 100 µM | > 100 µM | > 100 µM | > 100 µM | > 100 µM
12 | COc1cc2c(/C=C3/C(=O)N(c4ccccc4)c4ccccc43)c(Cl)[nH]c2cc1C | > 38.4 µM | 16.6 µM | 11.4 µM | > 23.1 µM | > 100 µM | 12.9 µM | 19 µM | 27 µM | > 100 µM | 6.24 µM | > 40.5 µM | 5.86 µM | 8.25 µM | 8.35 µM | 4.78 µM | > 54.6 µM | 18.9 µM | 27.9 µM | > 100 µM
13 | CCOC(=O)C(CS)NC(=O)CCCCCCCC(=O)NC(CS)C(=O)OCC (centres undefined) | > 100 µM | > 100 µM | > 100 µM | > 100 µM | > 100 µM | > 100 µM | > 100 µM | > 100 µM | > 100 µM | > 100 µM | > 100 µM | > 100 µM | > 100 µM | > 100 µM | > 100 µM | > 100 µM | > 100 µM | > 100 µM | > 100 µM
14 | CCO/C(O)=C(/C(=N)N1CCCC1)C(=O)Nc1cccc(C(F)(F)F)c1 | > 100 µM | > 100 µM | > 100 µM | > 100 µM | > 100 µM | > 100 µM | > 100 µM | > 100 µM | 83.7 µM | > 100 µM | > 100 µM | 51.9 µM | > 100 µM |  | > 100 µM | > 100 µM | 85.1 µM | > 100 µM | > 100 µM
15 | CSc1cc(N)ccc1N=Nc1ccc(S(N)(=O)=O)cc1 | 71.2 µM | > 100 µM | 62.9 µM | 82.8 µM | > 100 µM | > 100 µM | 84.4 µM | 57.9 µM | 50.4 µM | 43.7 µM | > 100 µM | 93.7 µM | 62.3 µM | 30.6 µM | > 100 µM | > 100 µM | 59.8 µM | 32 µM | > 100 µM
16 | CC(=O)c1cc2c(s1)C(=O)c1ccccc1C2=O | 14.6 µM | > 31.2 µM |  | > 100 µM | > 100 µM | 10.8 µM | 2.65 µM | 41.8 µM | 11.4 µM | 3.5 µM | 20.6 µM | 8.32 µM | 15.5 µM | 0.588 µM | > 80.3 µM | 5.57 µM | 23.1 µM | 7.01 µM | 36.2 µM
17 | C=C(C)C1CC=C(C)C2(C1)OCC(C)(C)C(C)O2 (centres undefined) | 34.5 µM | 31.1 µM | 33.9 µM | 35.5 µM | 45.8 µM | 47.1 µM | 29.5 µM | 46.3 µM | 35.7 µM | 46.4 µM | 38.5 µM | 48 µM | 34.2 µM | 29.2 µM | 53.7 µM | 33.3 µM | 48.2 µM | 30.4 µM | 63.9 µM
18 | C/C(O)=C/c1nc2ccc([N+](=O)[O-])cc2nc1/C=C(/C)O | > 100 µM | > 100 µM | > 100 µM | > 100 µM | > 100 µM | > 100 µM | 94.3 µM | > 100 µM | > 100 µM | 70 µM | > 100 µM | > 100 µM | 96.8 µM | > 100 µM | > 100 µM | > 100 µM | > 100 µM | > 100 µM | > 100 µM
19 | Cc1sc2ccccc2[n+]1CCC(=O)O | > 100 µM | > 100 µM | > 100 µM | 29.8 µM | > 100 µM | > 100 µM | > 100 µM | > 100 µM | > 100 µM | > 100 µM | > 100 µM | > 100 µM | > 100 µM | > 100 µM | > 100 µM | > 100 µM | > 100 µM | > 100 µM | > 100 µM
20 | CC(=O)N1CCN(C23OC4(N5CCN(C(C)=O)CC5)C5C6CC(C7C6C4C72)C53)CC1 (centres undefined) | > 100 µM | > 100 µM | > 100 µM | > 100 µM | > 100 µM | > 100 µM | > 100 µM | > 100 µM | > 100 µM | > 100 µM | > 100 µM | > 100 µM | > 100 µM | > 100 µM | > 100 µM | > 100 µM | > 100 µM | > 100 µM | 
